For the experiment, the target named is acetylcholinesterase (AChE) (Electrophorus electricus, UniProt O42275). Description: Ellman spectrophotometric microplate assay, […] nm. In kind it is biochemical. A general note: In Ellman's method for cholinesterases, released thiocholine reacts with DTNB.
Chain of acetylcholinesterase (AChE) (O42275 24-633): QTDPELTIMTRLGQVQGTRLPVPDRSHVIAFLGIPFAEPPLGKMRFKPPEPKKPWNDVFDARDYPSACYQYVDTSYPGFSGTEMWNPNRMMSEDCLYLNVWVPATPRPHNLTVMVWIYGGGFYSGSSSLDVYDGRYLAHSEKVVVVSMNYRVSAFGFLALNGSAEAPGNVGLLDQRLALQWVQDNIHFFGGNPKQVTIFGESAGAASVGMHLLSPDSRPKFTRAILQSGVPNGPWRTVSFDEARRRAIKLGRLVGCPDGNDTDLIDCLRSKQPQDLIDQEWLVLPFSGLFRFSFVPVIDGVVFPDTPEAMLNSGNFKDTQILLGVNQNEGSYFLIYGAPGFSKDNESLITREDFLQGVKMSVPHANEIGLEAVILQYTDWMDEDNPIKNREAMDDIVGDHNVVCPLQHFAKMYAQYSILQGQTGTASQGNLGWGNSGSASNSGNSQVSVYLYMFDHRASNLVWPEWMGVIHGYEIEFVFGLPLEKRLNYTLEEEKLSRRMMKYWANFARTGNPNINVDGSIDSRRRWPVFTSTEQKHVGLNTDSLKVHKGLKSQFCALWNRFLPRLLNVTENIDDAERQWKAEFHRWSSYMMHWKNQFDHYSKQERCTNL
One may read the IC50 as the point on the concentration scale where inhibition reaches its midpoint. Read a low IC50 as greater potency in that assay. `CC(=O)O[C@H]1[C@H]2c3cc4c(cc3C=[N+]3CCC(=C[C@@H]1O)[C@H]23)OCO4` [compound 1, 1-O-acetyl-5,6-dehydrolycorine] had an IC50 of 620 µM.
Next, `CC(=O)O[C@H]1[C@H]2c3cc4c(cc3CN3CCC(=C[C@@H]1O)[C@H]23)OCO4` [compound 2, 1-O-acetyl-lycorine]: 1430 µM.
`CC(=O)OC1[C@@H](OC(C)=O)C=C2CC[N+]3=Cc4cc5c(cc4[C@H]1[C@@H]23)OCO5` (stereo partly drawn) [compound 3, 1,2-O-diacetyl-5,6-dehydrolycorine]: the IC50 is 46.3 µM.

Source of the values: PMC7465821, “Isolation of Three Lycorine Type Alkaloids from Rhodolirium speciosum (Herb.) Ravenna Using pH-Zone-Refinement Centrifugal Partition Chromatography and Their Acetylcholinesterase Inhibitory Activities” (Metabolites, 2020).
